From US9463194B2, “Methods of treating patients co-infected with HIV and tuberculosis” (priority 2014, dated 2016)
≈ marks a conversion by molar mass, not a printed value. Entries after “also recorded” stand apart in the source; their conditions may differ.

Columns and labels:
[1] = Steady-state pharmacokinetic interaction study of EVG/COBI Composition plus evening COBI plus RFB QOD in healthy volunteers; format: in vivo, human
Description: “Ctau” or “Ctrough” is a pharmacokinetic (PK) parameter that refers to the concentration of the drug at the end of the dosing interval. This parameter is obtained by direct measurement of the drug concentrations in a plasma sample collected from the study subject at the end of the dosing interval (i.e., 24 hours post-dose) using a validated high-performance liquid chromatography/tandem mass spectrometry (HPLC/MS/MS) bioanalytical assay.
This study evaluated the steady-state pharmacokinetics and safety of the coadministered Composition and an additional dose of COBI in combination with RFB QOD.
Lack of PK alteration bounds for 90% confidence intervals (CI) about the geometric mean ratio (GMR) (coadministration: alone) were 70-143% for EVG and RFB.

[2] = RFB metabolite; cited from earlier work
[3] = in vivo; cited from earlier work
wild type HIV virus = assay: In vitro assay of concentration-dependent inhibition of wild type HIV virus (IC95); format: cell-based
Source text: “IC95” or “EC95” refers to the inhibitory concentration required to achieve 95% of the maximum desired effect, which in the case of EVG is the inhibition of the HIV virus. This term is obtained using an in vitro assay evaluating the concentration-dependent inhibition of wild type HIV virus.

[4] = ritonavir-boosted EVG + RFB QOD; cited from earlier work
[5] = coadministration (Composition QD + COBI 150 mg evening + RFB 150 mg QOD) : alone, healthy volunteers, n = 14, steady state

25-O-desacetylrifabutin
exposure higher versus RFB alone ([1]; RFB metabolite, EVG QD + COBI BID + RFB QOD versus RFB alone): ~12 fold | contribution to total antimycobacterial activity [2]: ~10%

CC(C)c1nc(CN(C)C(=O)N[C@@H](CCN2CCOCC2)C(=O)N[C@H](CC[C@H](Cc2ccccc2)NC(=O)OCc2cncs2)Cc2ccccc2)cs1 [COBI]
exposures upon coadministration with RFB (previous research) [3]: substantially lower | levels lower by 24 hrs post dose when co-administered with RFB [3]: 70%

COc1cc2c(cc1Cc1cccc(Cl)c1F)c(=O)c(C(=O)O)cn2[C@H](CO)C(C)C [EVG, elvitegravir]
IC95 (wild type HIV virus): 0.045 µg/mL (≈ 0.1 µM) | exposures upon coadministration with RFB (previous research) [3]: substantially lower | levels lower by 24 hrs post dose when co-administered with RFB [3]: 70%

CO[C@H]1/C=C/O[C@@]2(C)Oc3c(C)c(O)c4c(c3C2=O)C2=NC3(CCN(CC(C)C)CC3)NC2=C(NC(=O)/C(C)=C\C=C\[C@H](C)[C@H](O)[C@@H](C)[C@@H](O)[C@@H](C)[C@H](OC(C)=O)[C@@H]1C)C4=O [RFB, 1′,4-didehydro-1-deoxy-1,4-dihydro-5′-(2-methylpropyl)-1-oxorifamycin XIV]
exposures versus reference treatment (in words) ([1]; Composition QD + COBI 150 mg evening + RFB 150 mg QOD, no-effect boundary 70-143%): within the predefined no-effect boundary; also recorded: clinically equivalent exposures | Ctau higher versus reference treatments ([1]; EVG QD + COBI BID + RFB QOD versus reference treatment): 41% | AUCtau % GMR (90% CI) [1, 5]: 114.44 (100.27, 130.62) % | Cmax % GMR (90% CI) [1, 5]: 116.26 (101.44, 133.23) % | Ctau % GMR (90% CI) [1, 5]: 140.76 (123.76, 160.09) %

CC(C)c1nc(CN(C)C(=O)N[C@H](C(=O)N[C@@H](Cc2ccccc2)C[C@H](O)[C@H](Cc2ccccc2)NC(=O)OCc2cncs2)C(C)C)cs1 [ritonavir]
exposure when co-administered with RFB QOD (ritonavir boosting, in words) [4]: maintained through the end of the dosing interval
